Measurements as given in US11485742B2, “2-azaspiro[3.4]octane derivatives as M4 agonists” (NOVARTIS AG, priority 2019, dated 2022).
pEC50: −log10 of the molar value.

How the values were obtained:
[1] = molecular target: T1, human cloned CHRM4 receptor (Homo sapiens, UniProt P08173); assay: CHRM4 Ca++ Flux Assay (M4_CHO cells, agonist mode); format: cell-based; details: for M4 FDSS PA %: Percent Activity (PA); for pEC50: geometric mean if tested more than once, read-out: M4 FDSS EC50
T1 construct: expressed in transfected cells; host or cells: CHO-K1 (M4_CHO)
T1 sequence (P08173 1-479): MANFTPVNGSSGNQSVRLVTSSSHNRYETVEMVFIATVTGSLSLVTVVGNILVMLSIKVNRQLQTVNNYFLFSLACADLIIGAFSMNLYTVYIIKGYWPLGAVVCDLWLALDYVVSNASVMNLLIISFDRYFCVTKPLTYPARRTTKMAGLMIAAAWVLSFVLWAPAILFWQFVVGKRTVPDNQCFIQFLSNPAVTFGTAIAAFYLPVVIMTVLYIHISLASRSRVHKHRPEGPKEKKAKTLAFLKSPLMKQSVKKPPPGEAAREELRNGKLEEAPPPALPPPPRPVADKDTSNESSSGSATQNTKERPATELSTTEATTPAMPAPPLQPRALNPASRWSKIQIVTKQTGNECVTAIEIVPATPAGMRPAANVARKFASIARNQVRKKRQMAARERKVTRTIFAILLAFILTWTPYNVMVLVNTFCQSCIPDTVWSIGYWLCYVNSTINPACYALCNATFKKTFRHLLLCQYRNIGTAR
Description: (§1) The above examples were characterized by measuring the intracellular mobilization of Ca^++ ions caused by signaling events mediated by the receptor. The Intra-cellular Calcium flux levels were captured by the highly sensitive Ca^++ indicator, Calcium Assay Kit (BD Biosciences; Catalog Number 640178. The fluorescent activity from all receptors were monitored by the fluorescent imager, FDSS 7000EX (Hamamatsu) over a span of 3 minutes. The change in Calcium flux was readily captured upon activation with the muscarinic orthosteric agonist, Carbachol.
(§2) CHO-K1 cells stably expressing the human cloned CHRM4 receptor (M4_CHO cells) were grown and maintained in a monolayer culture with F12/HAM (Life Technologies) supplemented with 10% Fetal Bovine Serum, 1X Pen-Strep, and 0.4 mg/mL Geneticin in a humidified atmosphere (5% CO2) at 37° C. The cultures were grown to 80-90% confluency in T150 flasks (Corning) and washed with 1×DPBS then lifted with 0.05% Trypsin (Life Technologies). The cells were harvested in growth media then spun (1K rpm, 3 minutes) and cryopreserved using Recovery Cell Culture Freezing Media (Gibco Technologies). Cells were stored in liquid nitrogen and thawed a day before the assay.
Prior to the day of the assay, stable M4_CHO cells were thawed and plated on 384 well black walled clear bottom TC treated plates (Greiner Cat #781091) at 12K cells/well using F12/HAM Media supplemented with 10% FBS (Life Technologies) and kept overnight in a humidified atmosphere (5% CO2) at 37° C. The next day, cells were loaded with 20 μL Ca^++ dye (BD Biosciences) using Loading Buffer (HBSS +Ca/+Mg, 20 mM HEPES, 2.5 mM Probenecid) and placed back in cell incubator for a minimum of 1 hour. After incubation, the dye was replaced with 45 μL Assay Buffer (HBSS −Ca/−Mg, 20 mM HEPES, 2.5 mM Probenecid) supplemented with 20 μM ATP (Sigma Aldrich) and kept at room temperature in the dark for 60 minutes before running on a cell imager. The FDSS 7000EX (Hamamatsu) was used to capture Ca^++ traces for a span of 3 minutes from cells treated with 11 point dose of compound in triplicate in order to generate dose response curves in agonist mode. All compounds were serially diluted in DMSO then prepared in Assay Buffer for Ca^++ flux studies. The dose response curves were generated from the average of triplicate wells obtained from each data point and used a non-linear regression of four parameter dose response algorithm. The Percent Activity (PA) was measured to EC100 of Carbachol.
(§3) If an Example was tested more than once in an assay, then the values below represent the geometric mean of the results from each independent experiment.

[2] = molecular target: T2, human cloned CHRM2 receptor (Homo sapiens, UniProt P08172); assay: CHRM2 Ca++ Flux Assay (M2_CHO cells, agonist mode); format: cell-based; details: M2 CHO cells; for pEC50: agonist mode, geometric mean if tested more than once, read-out: M2 FDSS EC50; for M2 FDSS PA %: Percent Activity (PA) measured to EC100 of Carbachol
T2 construct: expressed in transfected cells; host or cells: CHO-K1 (M2_CHO)
T2 sequence (P08172 1-466): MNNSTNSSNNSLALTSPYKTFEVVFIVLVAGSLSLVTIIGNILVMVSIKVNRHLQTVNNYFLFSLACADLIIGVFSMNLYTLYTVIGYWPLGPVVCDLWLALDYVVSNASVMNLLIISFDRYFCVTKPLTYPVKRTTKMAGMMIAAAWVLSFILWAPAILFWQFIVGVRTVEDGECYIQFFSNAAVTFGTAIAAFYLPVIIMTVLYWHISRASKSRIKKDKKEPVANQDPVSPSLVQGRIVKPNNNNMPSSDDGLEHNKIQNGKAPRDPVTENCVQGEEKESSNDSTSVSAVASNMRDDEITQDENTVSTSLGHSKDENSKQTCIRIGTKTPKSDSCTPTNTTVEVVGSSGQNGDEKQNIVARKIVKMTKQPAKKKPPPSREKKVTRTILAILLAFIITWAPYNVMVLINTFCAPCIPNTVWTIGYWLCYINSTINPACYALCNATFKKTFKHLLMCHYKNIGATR
Description: as §1
as §2, with “cloned CHRM2” for “cloned CHRM4”, “receptor (M2_CHO” for “receptor (M4_CHO”, “Serum, 1×Pen-Strep,” for “Serum, 1X Pen-Strep,”, “1×DPBS and” for “1×DPBS then”, “were” for “were harvested in growth media”, “and frozen” for “and cryopreserved”
Prior to the day of the assay, stable M2 CHO cells were thawed and plated on Greiner 384 well TC treated plate at a density of 12K cells/well and kept overnight in a humidified atmosphere (5% CO2) at 37° C. The following day, the cells were loaded with Ca^++ dye (BD Biosciences) using Loading Buffer (HBSS +Ca/+Mg, 20 mM HEPES, 2.5 mM Probenecid) and placed back in cell incubator for a minimum of 1 hour and maximum of 2 hours. After incubation, the dye was replaced with Assay Buffer (HBSS −Ca/−Mg, 20 mM HEPES, 2.5 mM Probenecid) supplemented with 20 μM ATP (Sigma Aldrich) and kept at room temperature for 60 minutes prior before running on cell imager. The FDSS 7000EX (Hamamatsu) was used to acquire Ca^++ traces from cells in response to compound treatment and the data was used to generate dose response curves in agonist mode. All compounds were serially diluted in DMSO then prepared in Assay Buffer for Ca^−+ flux studies. The dose response curves were generated from the average of triplicate wells obtained from each data point and used a non-linear regression of four parameter dose response algorithm. The Percent Activity (PA) was measured to EC100 of Carbachol.
as §3

Row | Compound | M4 FDSS PA % [1] [%] | pEC50 [1] | pEC50 [2] | M2 FDSS PA % [2] [%]
1 | Fc1ccc(OC[C@H]2CCO2)c(C2CCN([C@@H]3COC4(C3)CN(c3nncs3)C4)CC2)c1.O=C(O)C(F)(F)F (single isomer, unassigned) [Example 2C, (S)-7-(4-(5-fluoro-2-(((R)-oxetan-2-yl)methoxy)phenyl)piperidin-1-yl)-2-(1,3,4-thiadiazol-2-yl)-5-oxa-2-azaspiro[3.4]octane trifluoroacetate or (S)-7-(4-(5-fluoro-2-(((S)-oxetan-2-yl)methoxy)phenyl)piperidin-1-yl)-2-(1,3,4-thiadiazol-2-yl)-5-oxa-2-azaspiro[3.4]octane trifluoroacetate] | 72 | 7.03 | 6.49 | 39
2 | Fc1ccc(OC[C@H]2CCO2)c(C2CCN([C@@H]3COC4(C3)CN(c3nncs3)C4)CC2)c1.O=C(O)C(F)(F)F (single isomer, unassigned) [Example 2D, (S)-7-(4-(5-fluoro-2-(((R)-oxetan-2-yl)methoxy)phenyl)piperidin-1-yl)-2-(1,3,4-thiadiazol-2-yl)-5-oxa-2-azaspiro[3.4]octane trifluoroacetate or (S)-7-(4-(5-fluoro-2-(((S)-oxetan-2-yl)methoxy)phenyl)piperidin-1-yl)-2-(1,3,4-thiadiazol-2-yl)-5-oxa-2-azaspiro[3.4]octane trifluoroacetate] | 72 | 7.70 | 6.35 | 50
3 | OC[C@H]1C[C@H](Oc2ccc(F)cc2C2CCN([C@@H]3COC4(C3)CN(c3nnco3)C4)CC2)C1 (single isomer, unassigned) [Example 2II, ((1S,3r)-3-(2-(1-((S)-2-(1,3,4-oxadiazol-2-yl)-5-oxa-2-azaspiro[3.4]octan-7-yl)piperidin-4-yl)-4-fluorophenoxy)cyclobutyl)methanol or ((1R,3s)-3-(2-(1-((S)-2-(1,3,4-oxadiazol-2-yl)-5-oxa-2-azaspiro[3.4]octan-7-yl)piperidin-4-yl)-4-fluorophenoxy)cyclobutyl)methanol] | 81 | 6.91 | 5.37 | 23
4 | CC1(C)C[C@@H](Oc2ccc(F)cc2C2CCN([C@@H]3COC4(C3)CN(c3nnco3)C4)CC2)CO1 (single isomer, unassigned) [Example 2N, (S)-7-(4-(2-(((R)-5,5-dimethyltetrahydrofuran-3-yl)oxy)-5-fluorophenyl)piperidin-1-yl)-2-(1,3,4-oxadiazol-2-yl)-5-oxa-2-azaspiro[3.4]octane or (S)-7-(4-(2-(((S)-5,5-dimethyltetrahydrofuran-3-yl)oxy)-5-fluorophenyl)piperidin-1-yl)-2-(1,3,4-oxadiazol-2-yl)-5-oxa-2-azaspiro[3.4]octane] | 65 | 6.54 | 5.37 | 20
5 | Fc1ccc(O[C@H]2CCCOC2)c(C2CCN([C@@H]3COC4(C3)CN(c3nnco3)C4)CC2)c1 (single isomer, unassigned) [Example 2Q, (S)-7-(4-(5-fluoro-2-(((S)-tetrahydro-2H-pyran-3-yl)oxy)phenyl)piperidin-1-yl)-2-(1,3,4-oxadiazol-2-yl)-5-oxa-2-azaspiro[3.4]octane or (S)-7-(4-(5-fluoro-2-(((R)-tetrahydro-2H-pyran-3-yl)oxy)phenyl)piperidin-1-yl)-2-(1,3,4-oxadiazol-2-yl)-5-oxa-2-azaspiro[3.4]octane] | 81 | 6.89 | 5.94 | 26

More lines, now with the values ahead:

Row | M4 FDSS PA % [1] [%] | pEC50 [1] | pEC50 [2] | M2 FDSS PA % [2] [%] | Compound
6 | 85 | 6.91 | 5.18 | 25 | OC[C@H]1C[C@H](Oc2ccc(F)cc2C2CCN([C@@H]3COC4(C3)CN(c3nnco3)C4)CC2)C1 (single isomer, unassigned) [Example 2HH, ((1S,3r)-3-(2-(1-((S)-2-(1,3,4-oxadiazol-2-yl)-5-oxa-2-azaspiro[3.4]octan-7-yl)piperidin-4-yl)-4-fluorophenoxy)cyclobutyl)methanol or ((1R,3s)-3-(2-(1-((S)-2-(1,3,4-oxadiazol-2-yl)-5-oxa-2-azaspiro[3.4]octan-7-yl)piperidin-4-yl)-4-fluorophenoxy)cyclobutyl)methanol]
7 | 86 | 7.29 | 6.24 | 37 | CC1(C)C[C@@H](Oc2ccc(F)cc2C2CCN([C@@H]3COC4(C3)CN(c3nnco3)C4)CC2)CO1 (single isomer, unassigned) [Example 2O, (S)-7-(4-(2-(((R)-5,5-dimethyltetrahydrofuran-3-yl)oxy)-5-fluorophenyl)piperidin-1-yl)-2-(1,3,4-oxadiazol-2-yl)-5-oxa-2-azaspiro[3.4]octane or (S)-7-(4-(2-(((S)-5,5-dimethyltetrahydrofuran-3-yl)oxy)-5-fluorophenyl)piperidin-1-yl)-2-(1,3,4-oxadiazol-2-yl)-5-oxa-2-azaspiro[3.4]octane]
8 | 76 | 7.60 | 6.59 | 42 | Fc1ccc(O[C@H]2CCCOC2)c(C2CCN([C@@H]3COC4(C3)CN(c3nnco3)C4)CC2)c1 (single isomer, unassigned) [Example 2R, (S)-7-(4-(5-fluoro-2-(((S)-tetrahydro-2H-pyran-3-yl)oxy)phenyl)piperidin-1-yl)-2-(1,3,4-oxadiazol-2-yl)-5-oxa-2-azaspiro[3.4]octane or (S)-7-(4-(5-fluoro-2-(((R)-tetrahydro-2H-pyran-3-yl)oxy)phenyl)piperidin-1-yl)-2-(1,3,4-oxadiazol-2-yl)-5-oxa-2-azaspiro[3.4]octane]
